Results as given in US10550383B2, “Galvanotaxis assay for quantitative assessment of the metastatic potential of cancer cells” (Ohio State Innovation Foundation, priority 2013, dated 2020).

Columns and labels:
Type in all cases: cell-based, human
SCP2 cells [1] = experiment: modified transmembrane assay, chemotaxis of SCP2 cells; details: 100 ng/mL in lower chamber, 8 hours, no induced electric field; Control vs SDF control p=0.015, Control vs EGF control p=0.001 (FIG. 4)
Protocol: Highly metastatic breast cancer cells known as SCP2, a single cell population derived from MDA-MB-231 that is known to metastasize to the bone, were cultured in Dulbecco's Modified Eagle Medium (DMEM; Life Technologies, Gaithersburg, Md., USA), supplemented with 10% heat inactivated fetal bovine serum (FBS), 5 U/mL penicillin, and 5 mg/mL streptomycin. The SCP2 cells were placed in the upper chamber, and both compartments contained 0.1% FBS-DM. The entire apparatus (holder, coil, modified transmembrane chambers with Transwell inserts and cells) was placed in a 37° C. culture incubator with humidified air containing 5% CO2. The leads of the coil were connected to the function generator placed outside the incubator. The cells were allowed to migrate for 8 hours, and then were fixed and stained using Hema-3 stain kit according to the manufacturer's instructions. The number of migratory cells per membrane was then measured using light microscopy by counting the total number of cells in each of five contiguous images spanning radially outward (five fields) from the coil (FIG. 9). […]
In one embodiment, low passage SCP2 cells were cultured in Dulbecco's Modified Eagle's Media (DMEM) containing 10% fetal bovine serum (FBS) and 5 U/mL penicillin, and 5 mg/mL streptomycin at 37° C. in a humidified culture incubator supplied with 5% CO2. […] The cells were counted using a hemocytometer. […]

SCP2 cells [2] = experiment: visualization of actin filaments by phalloidin staining and fluorescence microscopy; details: EGF 100 ng/mL, one hour, no induced electric field (FIG. 6a middle panel)
Protocol: The present invention allows the visualization of actin filaments that form the cytoskeleton of the SCP2 cells and play a crucial role in cell migration, when induced electric fields are applied in a non-contact manner as described earlier (FIG. 6). The images are quantified to determine the actin filament distribution within the cell as represented by the fluorescence intensity. In one embodiment, SCP2 cells are plated on a single-well, 60 mm diameter culture plate, allowed to migrate freely for an hour, and then fixed and stained with phalloidin-fluorophore conjugate for visualization of the actin filaments (FIG. 6a, left panel). […] These images have also been quantified after importing into MATLAB (FIGS. 18-20). […]
Analysis of actin filament distribution: images obtained from phalloidin and fluorescence microscopy are imported into MATLAB (2014a, Mathworks, Inc., Massachusetts, U.S.A.). […] Intensities are then separated into red, green, and blue so that the background and nuclei intensities may be filtered out and only the green fluorescence from the actin filaments is extracted. Actin fluorescence intensities are analyzed versus cell length (longer dimension being the length), and averaged.

MCF-10A cells = experiment: modified transmembrane assay, migration of MCF-10A cells; details: 50 ng/mL EGF in lower chamber, 16 hours, no induced electric field (-E+EGF, FIG. 22)
Protocol: Weak a.c. electric fields hinder chemotaxis of “normal” breast epithelial cells. Experiments on combined chemotaxis and electrotaxis were performed with MCF10A cells in the same modified transmembrane assay in order to examine the effects of the induced a.c. electric field in hindering chemotaxis of non-transformed cells. MCF-10A cells are a non-transformed epithelial cell line derived from human fibrocystic mammary tissue. These cells are considered “normal” breast epithelial cells as they have a karyotype that is nearly diploid, are dependent on externally supplied growth factors for migration, and lack the ability to form tumors in nude mice. The growth factor EGF was used as an exogenous agent to induce MCF-10A cells to migrate in the modified transmembrane assay, as in the case of the SCP2 cells. No migration of MCF-10A cells was observed without EGF in the bottom chamber. […]
In one embodiment, MCF10A cells were cultured in Dulbecco's Modified Eagle's Media (DMEM) F12 containing 5% horse serum (HS), 20 ng/ml epidermal growth factor (EGF), 0.5 mg/ml hydrocortisone, 100 ng/ml cholrea toxin, 10 μg/ml insulin and 5 U/mL penicillin, and 5 mg/mL streptomycin at 37° C. in a humidified culture incubator supplied with 5% CO2. […] After allowing migration for 16 hours, cells were stained, photographed and counted as described for the preparation of the SCP2 cells. […]

EGF: growth factor placed in the lower chamber to induce cell migration
migration of SCP2 cells (chemotaxis) versus control (SCP2 cells [1]): chemotaxis is well enabled | actin filament polymerization in SCP2 cells (SCP2 cells [2]): polymerization of actin filaments can be observed at one end of some cells | migration of MCF-10A cells (MCF-10A cells): strongly promotes migration

SDF-1α
migration of SCP2 cells (chemotaxis) versus control (SCP2 cells [1]): chemotaxis is well enabled
